Key:
HIV-1 = assay: Anti-HIV-1 activity in TZM-GFP cells (viral LTR-activated GFP expression); type: cell-based; conditions: for EC50: Human immunodeficiency virus 1, HIV-1 strain MOI=1, GFP positive cells counted after 48 hours; for inhibition at 2 µM: Human immunodeficiency virus 1, 2 μM compound; for inhibition at 2 µM / inhibition at 20 µM: HIV-1 MOI=1; for inhibition at 20 µM: Human immunodeficiency virus 1, 20 μM compound
Experimental: The potency of HIV-1 inhibition by a compound was based on its inhibitory effect on viral LTR-activated GFP expression compared with that of compound-free (DMSO) controls. Briefly, TZM-GFP cells were plated at density of 1×10^4 cells per well in a 96-well plate. 24 hours later, media was replaced with increasing concentrations of compound. 24 hours post treatment, cells were exposed to an HIV-1 strain (MOI=1).
(§1) The cytotoxicity of each compound was also determined in TZM-GFP cells. Cells were plated at a density of 1×10^4 cells per well in a 96-well plate and were continuously exposed to increasing concentrations of a compound for 72 hours. The number of viable cells in each well was determined using a Cell Proliferation Kit II (XTT), and 50% cytotoxicity concentration (CC50) values were determined. All the cell-based assays were conducted in duplicate and in at least two independent experiments. For the EC50 and CC50 dose responses, values were plotted in GraphPad Prism 5 and analyzed with the log (inhibitor) vs. normalized response-variable slope equation. Final values were calculated in each independent assay and the average values were determined. Statistical analysis (calculation of standard deviation) was performed by using Microsoft Excel.

[1] = Cytotoxicity in TZM-GFP cells (XTT); type: cell-based; conditions: human, 72 hours exposure, XTT
Experimental: as §1

[2] = molecular target: covalently-crosslinked hexameric CA A14C/E45C/W184A/M185A (CA121) (Human immunodeficiency virus type 1 group M subtype B, UniProt P12493, A146C/E177C/M317A/W316A); assay: Thermal shift assay (TSA), CA hexamer stability; type: binding, HIV-1; conditions: compound 20 μM, ΔTm=Tm−T0 vs DMSO

SMILES | EC50 (HIV-1) | CC50 at 72 h [1] | TSA ΔTm (° C.) [2] | inhibition at 2 µM (HIV-1) | inhibition at 20 µM (HIV-1)
Cc1cccc2c1NC(=O)C2CC(=O)N[C@@H](Cc1ccccc1)C(=O)N(C)c1cccc(Cl)c1 (stereo partly drawn) [Example 3, (2S)—N-(3-chlorophenyl)-N-methyl-2-(2-(7-methyl-2-oxoindolin-3-yl)acetamido)-3-phenylpropanamide] | 3.3 ± 0.3 µM | > 100 µM | −1.7 °C |  | 
Cc1cccc2c1NC(=O)C2CC(=O)N[C@@H](Cc1ccccc1)C(=O)N(C)c1cccc(F)c1 (stereo partly drawn) [Example 4, (2S)—N-(3-fluorophenyl)-N-methyl-2-(2-(7-methyl-2-oxoindolin-3-yl)acetamido)-3-phenylpropanamide] |  | > 50 µM | −0.9 °C | 0% | 93%
Cc1ccc(C)c2c1NC(=O)C2CC(=O)N[C@@H](Cc1ccccc1)C(=O)N(C)c1ccccc1 (stereo partly drawn) [Example 5, (2S)-2-(2-(4,7-dimethyl-2-oxoindolin-3-yl)acetamido)-N-methyl-N,3-diphenylpropanamide] | 4.9 ± 0.3 µM | > 100 µM | −1.8 °C |  | 
Cc1ccc(C)c2c1NC(=O)C2CC(=O)N[C@@H](Cc1ccccc1)C(=O)N(C)c1ccc(F)cc1 (stereo partly drawn) [Example 6, (2S)-2-(2-(4,7-dimethyl-2-oxoindolin-3-yl)acetamido)-N-(4-fluorophenyl)-N-methyl-3-phenylpropanamide] | 5.4 ± 0.5 µM | > 100 µM | −1.7 °C |  | 
Cc1ccc(C)c2c1NC(=O)C2CC(=O)N[C@@H](Cc1ccccc1)C(=O)N(C)c1cccc(F)c1 (stereo partly drawn) [Example 7, (2S)-2-(2-(4,7-dimethyl-2-oxoindolin-3-yl)acetamido)-N-(3-fluorophenyl)-N-methyl-3-phenylpropanamide] | 5.2 ± 0.4 µM | 60 ± 6 µM | −1.8 °C |  | 
Cc1ccc(C)c2c1NC(=O)C2CC(=O)N[C@@H](Cc1ccccc1)C(=O)N(C)c1ccc(Cl)cc1 (stereo partly drawn) [Example 8, (2S)—N-(4-chlorophenyl)-2-(2-(4,7-dimethyl-2-oxoindolin-3-yl)acetamido)-N-methyl-3-phenylpropanamide] | 2.8 ± 0.1 µM | 63 ± 13 µM | −1.3 °C |  | 
Cc1ccc(C)c2c1NC(=O)C2CC(=O)N[C@@H](Cc1ccccc1)C(=O)N(C)c1cccc(Cl)c1 (stereo partly drawn) [Example 9, (2S)—N-(3-chlorophenyl)-2-(2-(4,7-dimethyl-2-oxoindolin-3-yl)acetamido)-N-methyl-3-phenylpropanamide] | 2.1 ± 0.2 µM | 43 ± 2 µM | −2.4 °C |  | 
CN(C(=O)[C@H](Cc1ccccc1)NC(=O)Cc1ccc2ccccc2c1)c1ccccc1 [Example 10, (S)—N-methyl-2-(2-(naphthalen-2-yl)acetamido)-N,3-diphenylpropanamide] |  | < 50 µM | 4.8 °C | 40% | 98%
Cc1ccc(N(C)C(=O)[C@H](Cc2ccccc2)NC(=O)Cc2ccc3ccccc3c2)cc1 [Example 11, (S)—N-methyl-2-(2-(naphthalen-2-yl)acetamido)-3-phenyl-N-(p-tolyl)propanamide] | 0.99 ± 0.005 µM | < 50 µM | 6.4 °C |  | 
CN(C(=O)[C@H](Cc1ccccc1)NC(=O)Cc1ccc2ccccc2c1)c1ccc(Cl)cc1 [Example 12, (S)—N-(4-chlorophenyl)-N-methyl-2-(2-(naphthalen-2-yl)acetamido)-3-phenylpropanamide] | 0.63 ± 0.02 µM | < 50 µM | 7.0 °C |  | 
CN(C(=O)[C@H](Cc1ccccc1)NC(=O)Cc1ccc2ccccc2c1)c1cccc(Cl)c1 [Example 13, (S)—N-(3-chlorophenyl)-N-methyl-2-(2-(naphthalen-2-yl)acetamido)-3-phenylpropanamide] |  | < 50 µM | 4.3 °C | 0% | 94%
CN(C(=O)[C@H](Cc1ccccc1)NC(=O)Cc1ccc2ccccc2c1)c1cccc(F)c1 [Example 14, (S)—N-(3-fluorophenyl)-N-methyl-2-(2-(naphthalen-2-yl)acetamido)-3-phenylpropanamide] |  | < 50 µM | 5.2 °C | 0% | 97%
CCN(C(=O)[C@H](Cc1ccccc1)NC(=O)Cc1ccc2ccccc2c1)c1ccccc1 [Example 15, (S)—N-ethyl-2-(2-(naphthalen-2-yl)acetamido)-N,3-diphenylpropanamide] |  | < 50 µM | 4.3 °C | 46% | 97%
CN(C(=O)[C@H](Cc1ccccc1)NC(=O)Cc1cccc2ccccc12)c1ccccc1 [Example 16, (S)—N-methyl-2-(2-(naphthalen-1-yl)acetamido)-N,3-diphenylpropanamide] | 1.1 ± 0.04 µM | < 50 µM | 6.0 °C |  | 
Cc1ccc(N(C)C(=O)[C@H](Cc2ccccc2)NC(=O)Cc2cccc3ccccc23)cc1 [Example 17, (S)—N-methyl-2-(2-(naphthalen-1-yl)acetamido)-3-phenyl-N-(p-tolyl)propanamide] | 1 ± 0.2 µM | < 50 µM | 5.7 °C |  | 
CN(C(=O)[C@H](Cc1ccccc1)NC(=O)Cc1cccc2ccccc12)c1ccc(Cl)cc1 [Example 18, (S)—N-(4-chlorophenyl)-N-methyl-2-(2-(naphthalen-1-yl)acetamido)-3-phenylpropanamide] | 0.83 ± 0.03 µM | < 50 µM | 7.2 °C |  | 
CN(C(=O)[C@H](Cc1ccccc1)NC(=O)Cc1cccc2ccccc12)c1cccc(Cl)c1 [Example 19, (S)—N-(3-chlorophenyl)-N-methyl-2-(2-(naphthalen-1-yl)acetamido)-3-phenylpropanamide] |  | < 50 µM | 4.4 °C | 53% | 96%
CN(C(=O)[C@H](Cc1ccccc1)NC(=O)Cc1cccc2ccccc12)c1cccc(F)c1 [Example 20, (S)—N-(3-fluorophenyl)-N-methyl-2-(2-(naphthalen-1-yl)acetamido)-3-phenylpropanamide] |  | < 50 µM | 5.4 °C | 44% | 97%
CCN(C(=O)[C@H](Cc1ccccc1)NC(=O)Cc1cccc2ccccc12)c1ccccc1 [Example 21, (S)—N-ethyl-2-(2-(naphthalen-1-yl)acetamido)-N,3-diphenylpropanamide] | 1.8 ± 0.09 µM | < 50 µM | 4.9 °C |  | 
CN(C(=O)[C@H](Cc1ccccc1)NC(=O)CN1C(=O)NC2(CCCCC2)C1=O)c1ccccc1 [Example 22, 2-(2-(2,4-dioxo-1,3-diazaspiro[4.5]decan-3-yl)acetamido)-N-methyl-N,3-diphenylpropanamide] | 8.9 ± 1.5 µM | > 100 µM | 1.3 °C |  | 
COc1ccc(N(C)C(=O)[C@H](Cc2ccccc2)NC(=O)CN2C(=O)NC3(CCCCC3)C2=O)cc1 [Example 23, 2-(2-(2,4-dioxo-1,3-diazaspiro[4.5]decan-3-yl)acetamido)-N-(4-methoxyphenyl)-N-methyl-3-phenylpropanamide] | 5.1 ± 2 µM | > 100 µM | 1.8 °C |  | 
Cc1ccc(N(C)C(=O)[C@H](Cc2ccccc2)NC(=O)CN2C(=O)NC3(CCCCC3)C2=O)cc1 [Example 24, 2-(2-(2,4-dioxo-1,3-diazaspiro[4.5]decan-3-yl)acetamido)-N-methyl-3-phenyl-N-(p-tolyl)propenamide] | 1.9 ± 0.5 µM | > 100 µM | 2.7 °C |  | 
CN(C(=O)[C@H](Cc1ccccc1)NC(=O)CN1C(=O)NC2(CCCCC2)C1=O)c1ccc(F)cc1 [Example 25, 2-(2-(2,4-dioxo-1,3-diazaspiro[4.5]decan-3-yl)acetamido)-N-(4-fluorophenyl)-N-methyl-3-phenylpropanamide] |  | > 50 µM | 3.1 °C | 9% | 99%
CN(C(=O)[C@H](Cc1ccccc1)NC(=O)CN1C(=O)NC2(CCCCC2)C1=O)c1cccc(F)c1 [Example 26, 2-(2-(2,4-dioxo-1,3-diazaspiro[4.5]decan-3-yl)acetamido)-N-(3-fluorophenyl)-N-methyl-3-phenylpropanamide] |  | > 50 µM | 1.3 °C | 24% | 98%
CN(C(=O)[C@H](Cc1ccccc1)NC(=O)CN1C(=O)NC2(CCCCC2)C1=O)c1ccc(Cl)cc1 [Example 27, N-(4-chlorophenyl)-2-(2-(2,4-dioxo-1,3-diazaspiro[4.5]decan-3-yl)acetamido)-N-methyl-3-phenylpropanamide] | 2.5 ± 0.5 µM | > 100 µM | 2.2 °C |  | 
CN(C(=O)[C@H](Cc1ccccc1)NC(=O)CN1C(=O)NC2(CCCCC2)C1=O)c1cccc(Cl)c1 [Example 28, N-(3-chlorophenyl)-2-(2-(2,4-dioxo-1,3-diazaspiro[4.5]decan-3-yl)acetamido)-N-methyl-3-phenylpropanamide] |  | < 50 µM | 3.3 °C | 9% | 98%
